From the supplement of paper PMC4862054
Where “and” joins values, the source holds several entries; their conditions need not be identical. Equal values may be shown once.

Tests used:
Details in all cases: incubation time: 72 h
CAL-148 = test: normalised viability (% of control), CellTiter-Blue; higher = more viable cells (about 100 = DMSO control)
Description: (§1)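 DSRT, CellTiter-Blue viability, 72 h incubation. Signal is normalised to DMSO and benzethonium chloride controls. Value is the normalised response at dose 7.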

HDQ-P1 = test: as above
Description: as §1

MDA-MB-453 [1] = test: as above
Description: as §1

DU-4475 = test: as above
Description: as §1

CAL-85-1 [2] = test: as above
Description: as §1

CAL-51 [3] = test: as above
Description: as §1

HCC1599 = test: drug sensitivity score (DSS), CellTox Green (DSS (AUC-based score)); higher = stronger drug effect (viability inhibition or cytotoxicity); extreme values may be limits of the assay
Outline: (§2)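 Plates with 384 wells held compound at 5 concentrations in 10-fold steps over a 10,000-fold range specific to each compound. Breast cancer cell lines were added in 20 µl suspension and incubated 72 h, then read for CellTox Green and CellTiter-Glo signals, with each plate normalised to 0.1 % DMSO and a positive kill control. The drug sensitivity score is based on the area under the fitted dose-response curve.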

MDA-MB-468 = test: as above
Outline: as §2

CAL-120 = test: as above
Outline: as §2

CAL-51 [4] = test: normalised viability (% of control), CellTiter-Blue; higher = more viable cells (about 100 = DMSO control); remark: listed apart in the source
Description: (§3)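 DSRT, CellTiter-Blue viability, 72 h incubation. Signal is normalised to DMSO and benzethonium chloride controls. Value is the normalised response at dose 9.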

MDA-MB-453 [5] = test: as above; remark: listed apart in the source
Description: as §3

CAL-85-1 [6] = test: as above; remark: listed apart in the source
Description: as §3

SMILES | normalised viability (CAL-148) | normalised viability (HDQ-P1) | normalised viability (MDA-MB-453 [1]) | normalised viability (DU-4475) | normalised viability (CAL-85-1 [2]) | normalised viability (CAL-51 [3]) | drug sensitivity score (HCC1599) | drug sensitivity score (MDA-MB-468) | drug sensitivity score (CAL-120) | normalised viability (CAL-51 [4]) | normalised viability (MDA-MB-453 [5]) | normalised viability (CAL-85-1 [6])
COCC1(CO)C(=O)C2CCN1CC2 (stereo not drawn) [Prima-1 Met] (1000 nM) | 102% | 106% | 80.5% | 108% | 90.9% | 102% | – | – | – | – | – | –
Oc1ccc2c(c1)CC[C@H](c1ccccc1)[C@@H]2c1ccc(OCCN2CCCC2)cc1 [Lasofoxifene] | – | – | – | – | – | – | 0 | 0 | 0 | – | – | –
CCc1c2c(nc3ccc(OC(=O)N4CCC(N5CCCCC5)CC4)cc13)-c1cc3c(c(=O)n1C2)COC(=O)[C@]3(O)CC [Irinotecan] (10000 nM) | – | – | – | – | – | – | – | – | – | 8.48% and 31.6% | – | –
Oc1ccc2c(c1)CC[C@H](c1ccccc1)[C@@H]2c1ccc(OCCN2CCCC2)cc1 [Lasofoxifene] (1000 nM) | – | – | – | – | – | – | – | – | – | 90% | 107% | 81.8%
CNC(=O)c1cc(Oc2ccc(NC(=O)Nc3ccc(Cl)c(C(F)(F)F)c3)c(F)c2)ccn1 [Regorafenib] (1000 nM) | 107% | 98.3% | 87% | 97.6% | 78.6% | 90.5% | – | – | – | – | – | –
COc1cc2ncnc(Nc3ccc(F)c(Cl)c3)c2cc1OCCCN1CCOCC1 [Gefitinib] (1000 nM) | 79.6% and 83.3% | 76.2% and 90.4% | 82.9% and 76.9% | 101% and 86.2% | 54.4% and 47.4% | 107% and 98.3% | – | – | – | – | – | –
O=C(/C=C/c1cccc(S(=O)(=O)Nc2ccccc2)c1)NO [Belinostat] (1000 nM) | 24.3% | 49.5% | 4.06% | 33.3% | 42.8% | 59.9% | – | – | – | – | – | –
NC(=O)c1ccc(I)c([N+](=O)[O-])c1 [Iniparib] (1000 nM) | 87.9% | 99.6% | 89.2% | 108% | 83.3% | 95.3% | – | – | – | – | – | –
C=C1C[C@@H]2[C@H](CC[C@]3(C)C(=O)CC[C@@H]23)[C@@]2(C)C=CC(=O)C=C12 [Exemestane] (1000 nM) | 120% | 102% | 90.2% | 85.8% | 91.7% | 96.5% | – | – | – | – | – | –
C=C1C[C@@H]2[C@H](CC[C@]3(C)C(=O)CC[C@@H]23)[C@@]2(C)C=CC(=O)C=C12 [Exemestane] (10000 nM) | – | – | – | – | – | – | – | – | – | 105% | 81% | 99.1%
COc1cc(OC2CCN(C)CC2)ccc1Nc1ncc2c(n1)n(C1CCCC1)c(=O)n2C [AZ 3146] (1000 nM) | 108% | 89.4% | 90.6% | 99% | 108% | 75.2% | – | – | – | – | – | –
CN(C)c1nc(N(C)C)nc(N(C)C)n1 [Altretamine] (1000 nM) | 105% | 101% | 91.6% | 113% | 96.9% | 103% | – | – | – | – | – | –
CCc1c2c(nc3ccc(OC(=O)N4CCC(N5CCCCC5)CC4)cc13)-c1cc3c(c(=O)n1C2)COC(=O)[C@]3(O)CC [Irinotecan] (1000 nM) | 61.5% and 70.9% | 98.8% and 93.5% | 76% and 99.8% | 73.1% and 78.7% | 88.7% and 94.5% | 80.6% and 99.8% | – | – | – | – | – | –
Cc1[nH]c2ccccc2c1CCNCc1ccc(/C=C/C(=O)NO)cc1 [Panobinostat] (1000 nM) | – | – | – | – | – | – | – | – | – | 1.29% | 1.09% | 4.25%
Oc1ccc2c(c1)CC[C@H](c1ccccc1)[C@@H]2c1ccc(OCCN2CCCC2)cc1 [Lasofoxifene] (100 nM) | 107% | 109% | 80.7% | 106% | 87.2% | 99.7% | – | – | – | – | – | –
Cc1ccc(NC(=O)c2ccc(CN3CCN(C)CC3)cc2)cc1Nc1nc(-c2cccnc2)cs1 [Masitinib] (1000 nM) | 87.1% | 105% | 89.6% | 120% | 94.3% | 104% | – | – | – | – | – | –
O=P1(N(CCCl)CCCl)NCCCO1 (stereo not drawn) [Cyclophosphamide] (40000 nM) | – | – | – | – | – | – | – | – | – | 101% | 117% | 98.4%
CN(C)c1nc(N(C)C)nc(N(C)C)n1 [Altretamine] (10000 nM) | – | – | – | – | – | – | – | – | – | 72.6% | 18.7% | 46.5%
Cc1ccc(NC(=O)c2ccc(CN3CCN(C)CC3)cc2)cc1Nc1nc(-c2cccnc2)cs1 [Masitinib] (10000 nM) | – | – | – | – | – | – | – | – | – | 80.4% | 24.4% | 70.4%

SMILES | normalised viability (CAL-148) | normalised viability (HDQ-P1) | normalised viability (MDA-MB-453 [1]) | normalised viability (DU-4475) | normalised viability (CAL-85-1 [2]) | normalised viability (CAL-51 [3]) | drug sensitivity score (HCC1599) | drug sensitivity score (MDA-MB-468) | drug sensitivity score (CAL-120) | normalised viability (CAL-51 [4]) | normalised viability (MDA-MB-453 [5]) | normalised viability (CAL-85-1 [6])
CC(C)C[C@@H](C(=O)N[C@H](C(=O)OC1CCCC1)c1ccccc1)[C@H](O)C(=O)NO [Tosedostat] (1000 nM) | 67.8% | 76.3% | 41.2% | 51% | 77% | 77.1% | – | – | – | – | – | –
O=C(Nc1cccnc1)N1CCC(Cc2cccc(Oc3ccc(C(F)(F)F)cn3)c2)CC1 [PF-3845] (10000 nM) | – | – | – | – | – | – | – | – | – | 65.5% | 38.4% | 93.4%
COc1cc(OC2CCN(C)CC2)ccc1Nc1ncc2c(n1)n(C1CCCC1)c(=O)n2C [AZ 3146] (10000 nM) | – | – | – | – | – | – | – | – | – | 22% | 37.4% | 72.4%
O=C(/C=C/c1cccc(S(=O)(=O)Nc2ccccc2)c1)NO [Belinostat] (10000 nM) | – | – | – | – | – | – | – | – | – | 3.47% | 1.48% | 7.19%
COCC1(CO)C(=O)C2CCN1CC2 (stereo not drawn) [Prima-1 Met] (10000 nM) | – | – | – | – | – | – | – | – | – | 99.7% | 89.4% | 98.3%
COc1cc2ncnc(Nc3ccc(F)c(Cl)c3)c2cc1OCCCN1CCOCC1 [Gefitinib] (10000 nM) | – | – | – | – | – | – | – | – | – | 82.1% and 81.6% | 29.8% and 23% | 45% and 40.7%
COCC[n+]1c2c(n(Cc3cnccn3)c1C)C(=O)c1ccccc1C2=O [YM155] (10000 nM) | – | – | – | – | – | – | – | – | – | 1.83% | 2% | 2.71%
CNC(=O)c1cc(Oc2ccc(NC(=O)Nc3ccc(Cl)c(C(F)(F)F)c3)c(F)c2)ccn1 [Regorafenib] (10000 nM) | – | – | – | – | – | – | – | – | – | 48.2% | 22% | 76.7%
O=C(Nc1cccnc1)N1CCC(Cc2cccc(Oc3ccc(C(F)(F)F)cn3)c2)CC1 [PF-3845] (1000 nM) | 101% | 144% | 86% | 81.3% | 83% | 101% | – | – | – | – | – | –
O=P1(N(CCCl)CCCl)NCCCO1 (stereo not drawn) [Cyclophosphamide] (4000 nM) | 121% | 99.2% | 105% | 97% | 101% | 99% | – | – | – | – | – | –
c1ccc2c(CCNc3ccc(Nc4ccncc4)cc3)c[nH]c2c1 [Serdemetan] (1000 nM) | 77.3% | 96.4% | 85.2% | 104% | 75.9% | 102% | – | – | – | – | – | –
O=C(Nc1ccncc1)C(=O)c1cn(Cc2ccc(Cl)cc2)c2ccccc12 [Indibulin] (1000 nM) | 118% | 61.3% | 38.5% | 81.8% | 53.8% | 54.2% | – | – | – | – | – | –
CN(C)CCOc1ccc(/C(=C(/CCCl)c2ccccc2)c2ccccc2)cc1 [Toremifene] (1000 nM) | 108% | 124% | 106% | 97.4% | 99.7% | 100% | – | – | – | – | – | –
CO[C@H]1C[C@@H]2CC[C@@H](C)[C@@](O)(O2)C(=O)C(=O)N2CCCC[C@H]2C(=O)O[C@H]([C@H](C)C[C@@H]2CC[C@@H](OP(C)(C)=O)[C@H](OC)C2)CC(=O)[C@H](C)/C=C(\C)[C@@H](O)[C@@H](OC)C(=O)[C@H](C)C[C@H](C)/C=C/C=C/C=C/1C [Ridaforolimus] (100 nM) | 37% | 76.6% | 24.1% | 53.7% | 52.5% | 39.4% | – | – | – | – | – | –
c1ccc2c(CCNc3ccc(Nc4ccncc4)cc3)c[nH]c2c1 [Serdemetan] (10000 nM) | – | – | – | – | – | – | – | – | – | 57% | 39.4% | 55.1%
COc1cc2/c(=N/c3ccc(Br)cc3F)nc[nH]c2cc1OCC1CCN(C)CC1 [Vandetanib] (1000 nM) | 89.2% | 48.7% | 87.9% | 105% | 71% | 82.4% | – | – | – | – | – | –
N#Cc1ccc(COC[C@H]2O[C@@H](n3c(NCc4ccc(Cl)c(Cl)c4)nc4c(N)ncnc43)[C@H](O)[C@@H]2O)cc1 (1000 nM) | 101% | 81.2% | 93.2% | 99.8% | 88.9% | 105% | – | – | – | – | – | –
COCC[n+]1c2c(n(Cc3cnccn3)c1C)C(=O)c1ccccc1C2=O [YM155] (1000 nM) | 2.29% | 0.25% | 7.19% | 1.98% | 2.27% | 1.61% | – | – | – | – | – | –
Cc1[nH]c2ccccc2c1CCNCc1ccc(/C=C/C(=O)NO)cc1 [Panobinostat] (100 nM) | 5.94% | 32.3% | 2.59% | 3.38% | 15.6% | 25.6% | – | – | – | – | – | –
